Experimental data reported in publication PMC7413254 (Nature Communications, 2020).
Read-outs that look alike come from different tables or passages of the source.

Experiments:
PfCRT^Dd2 [1] = target: T1, PfCRT^Dd2 (Plasmodium falciparum, UniProt Q9N623, A220S/I356T/K76T/M74I/N326S/N75E/Q271E/R371I); assay: [3H]CQ uptake into Xenopus oocytes, cis-inhibition by unlabelled solute; format: cell-based; conditions: PfCRTDd2 oocytes, background [3H]CQ accumulation subtracted, normalised to oocyte type control
Summary of the method: (§1)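 Transport runs from the acidic bath into the cytosol, analogous to PfCRT-mediated efflux out of the vacuole. Non-expressing oocytes act as background.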

PfCRT^Ecu1110 [2] = target: T2, PfCRT^Ecu1110 (Plasmodium falciparum, UniProt Q9N623, A220S/I356L/K76T/N326D); assay: as above; format: cell-based; conditions: for Uptake of [3H]CQ (% PfCRTEcu1110 control), cis-inhibition / PfCRT-mediated [3H]CQ transport, cis-inhibition (% PfCRTEcu1110 control): PfCRTEcu1110 oocytes; for Uptake of [3H]CQ (% PfCRTEcu1110 control), cis-inhibition: total [3H]CQ transport, normalised to the oocyte type control; for PfCRT-mediated [3H]CQ transport, cis-inhibition (% PfCRTEcu1110 control): background [3H]CQ accumulation subtracted, normalised to oocyte type control; for [3H]CQ transport (% PfCRTEcu1110 control), cis-inhibition, PfCRTEcu1110: PfCRT-mediated component (background subtracted), sheet title says normalised to PfCRTDd2 control, mean ± SEM, SEM
Summary of the method: as §1

PfCRT^3D7 [3] = target: T3, PfCRT^3D7 (Plasmodium falciparum, UniProt Q8IBZ9); assay: cell-based; format: cell-based; conditions: PfCRT3D7 oocytes, total [3H]CQ transport, normalised to the oocyte type control
Summary of the method: as §1

non-expressing oocytes [4] = assay: cells; format: cell-based, Xenopus laevis; conditions: non-expressing oocytes, total [3H]CQ transport, normalised to the oocyte type control
Summary of the method: as §1

PfCRT^Dd2 [5] = target: T1, PfCRT^Dd2; assay: cell-based; format: cell-based; conditions: for Uptake of [3H]CQ (% PfCRTDd2 control), trans-stimulation / PfCRT-mediated [3H]CQ transport, trans-stimulation (% PfCRTDd2 control): PfCRTDd2 oocytes; for Uptake of [3H]CQ (% PfCRTDd2 control), trans-stimulation: total [3H]CQ transport, normalised to the oocyte type control; for PfCRT-mediated [3H]CQ transport, trans-stimulation (% PfCRTDd2 control): normalised to oocyte type control; for [3H]CQ transport (% PfCRTDd2 control), trans-stimulation, PfCRTDd2: PfCRT-mediated component (background subtracted), mean ± SEM, SEM
Summary of the method: (§2)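 Oocytes (ten per treatment, ≥4 independent frogs/days) were preloaded by injecting VF-6 in 25 nL ND96 at pH 5.0, 5.5, 6.0 or 7.0, or Na^+-free choline buffer, then uptake run 1.5 h, 27.5 °C, ND96 pH 5.5 by default. Internal concentrations assumed ~400 nL oocyte volume.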

PfNT1 = target: T4, PfNT1 (Plasmodium falciparum, UniProt Q8IDM6); assay: cell-based; format: cell-based; conditions: PfNT1 oocytes, total [3H]CQ transport, normalised to the oocyte type control
T4 construct: expressed in transfected cells; host or cells: Xenopus laevis oocytes (stage V-VI), cRNA-injected
Summary of the method: as §2

PfCRT^3D7 [6] = target: T3, PfCRT^3D7; assay: cell-based; format: cell-based; conditions: PfCRT3D7 oocytes; for Uptake of [3H]CQ (% PfCRT3D7 control), trans-stimulation: total [3H]CQ transport, normalised to the oocyte type control; for PfCRT-mediated [3H]CQ transport, trans-stimulation (% PfCRT3D7 control): normalised to oocyte type control
Summary of the method: as §2

PfCRT^Ecu1110 [7] = target: T2, PfCRT^Ecu1110; assay: cell-based; format: cell-based; conditions: for Uptake of [3H]CQ (% PfCRTEcu1110 control), trans-stimulation / PfCRT-mediated [3H]CQ transport, trans-stimulation (% PfCRTEcu1110 control): PfCRTEcu1110 oocytes; for Uptake of [3H]CQ (% PfCRTEcu1110 control), trans-stimulation: total [3H]CQ transport, normalised to the oocyte type control; for PfCRT-mediated [3H]CQ transport, trans-stimulation (% PfCRTEcu1110 control): normalised to oocyte type control; for [3H]CQ transport (% PfCRTDd2 control), trans-stimulation, PfCRTEcu1110: PfCRT-mediated component (background subtracted), sheet title says normalised to PfCRTDd2 control, mean ± SEM, SEM
Summary of the method: as §2

non-expressing oocytes [8] = format: cell-based, Xenopus laevis; conditions: non-expressing oocytes, total [3H]CQ transport, normalised to the oocyte type control
Summary of the method: as §2

[9] = [test solute]i = 45 mM (30 mM for some solutes due to solubility)
[10] = [test solute]i = 5 mM (intracellular)
[11] = [test solute]i = 45 mM (intracellular; 30 mM for some solutes due to solubility)
[12] = [test solute]i = 5 mM (injected)

T2 sequence (Q9N623 whole entry A220S/I356L/K76T/N326D): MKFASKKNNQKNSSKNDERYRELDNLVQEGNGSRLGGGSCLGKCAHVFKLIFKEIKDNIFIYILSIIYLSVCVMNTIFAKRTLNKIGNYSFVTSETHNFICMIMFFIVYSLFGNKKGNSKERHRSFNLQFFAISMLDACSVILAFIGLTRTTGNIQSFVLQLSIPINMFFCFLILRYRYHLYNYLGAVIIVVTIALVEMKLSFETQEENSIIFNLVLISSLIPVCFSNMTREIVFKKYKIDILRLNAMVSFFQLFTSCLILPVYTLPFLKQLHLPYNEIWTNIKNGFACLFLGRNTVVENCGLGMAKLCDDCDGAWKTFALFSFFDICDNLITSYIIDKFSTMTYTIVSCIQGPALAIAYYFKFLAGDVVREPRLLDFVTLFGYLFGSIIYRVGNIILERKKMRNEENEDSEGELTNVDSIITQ
T1 sequence (Q9N623 whole entry A220S/I356T/K76T/M74I/N326S/N75E/Q271E/R371I): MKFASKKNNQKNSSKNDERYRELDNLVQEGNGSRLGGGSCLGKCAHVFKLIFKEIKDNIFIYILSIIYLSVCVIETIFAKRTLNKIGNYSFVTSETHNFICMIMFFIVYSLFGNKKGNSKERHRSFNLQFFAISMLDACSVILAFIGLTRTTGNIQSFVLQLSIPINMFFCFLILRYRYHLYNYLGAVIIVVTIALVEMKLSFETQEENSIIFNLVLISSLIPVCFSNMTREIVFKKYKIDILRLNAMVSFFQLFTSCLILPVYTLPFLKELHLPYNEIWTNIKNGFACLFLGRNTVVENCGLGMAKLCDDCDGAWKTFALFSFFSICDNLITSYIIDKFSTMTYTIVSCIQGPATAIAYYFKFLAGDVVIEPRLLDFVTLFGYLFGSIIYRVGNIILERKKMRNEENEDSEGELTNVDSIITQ
T3 sequence (Q8IBZ9 59-398): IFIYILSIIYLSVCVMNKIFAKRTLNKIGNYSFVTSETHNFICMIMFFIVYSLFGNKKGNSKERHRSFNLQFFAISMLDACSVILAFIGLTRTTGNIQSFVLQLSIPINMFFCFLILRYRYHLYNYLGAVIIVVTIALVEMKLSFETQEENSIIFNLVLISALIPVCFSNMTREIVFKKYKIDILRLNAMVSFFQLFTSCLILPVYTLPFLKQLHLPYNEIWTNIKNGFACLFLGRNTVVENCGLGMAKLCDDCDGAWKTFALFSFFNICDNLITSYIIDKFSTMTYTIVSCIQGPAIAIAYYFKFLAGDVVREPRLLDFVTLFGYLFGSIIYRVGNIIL
T4 sequence (Q8IDM6 whole entry): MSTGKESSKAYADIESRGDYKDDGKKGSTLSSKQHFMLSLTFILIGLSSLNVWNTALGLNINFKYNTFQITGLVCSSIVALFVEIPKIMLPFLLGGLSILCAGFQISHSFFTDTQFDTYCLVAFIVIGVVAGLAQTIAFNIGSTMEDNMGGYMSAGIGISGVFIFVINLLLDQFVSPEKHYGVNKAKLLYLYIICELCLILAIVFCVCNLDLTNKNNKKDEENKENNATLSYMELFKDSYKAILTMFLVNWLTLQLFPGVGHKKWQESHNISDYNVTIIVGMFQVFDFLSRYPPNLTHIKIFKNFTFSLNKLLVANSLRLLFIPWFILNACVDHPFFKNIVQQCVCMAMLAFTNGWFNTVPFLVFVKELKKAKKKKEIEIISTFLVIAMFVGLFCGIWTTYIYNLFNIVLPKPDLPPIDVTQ

## DPVN [DN-4]
PfCRT^Dd2 [1]; [test solute] = 0.5 mM
  PfCRT-mediated [3H]CQ transport, cis-inhibition (% PfCRTDd2 control): 63 ± 3.1 % PfCRTDd2 control
PfCRT^Dd2 [1]; [test solute] = 1 mM
  PfCRT-mediated [3H]CQ transport, cis-inhibition (% PfCRTDd2 control): 47 ± 3.1 % PfCRTDd2 control
PfCRT^Dd2 [1]; [test solute] = 2 mM
  PfCRT-mediated [3H]CQ transport, cis-inhibition (% PfCRTDd2 control): 42 ± 3.2 % PfCRTDd2 control
PfCRT^Ecu1110 [2]; [test solute] = 0.5 mM
  Uptake of [3H]CQ (% PfCRTEcu1110 control), cis-inhibition: 73 ± 4.4 % PfCRTEcu1110 control
  [3H]CQ transport (% PfCRTEcu1110 control), cis-inhibition, PfCRTEcu1110: 21 ± 0.6 % PfCRTEcu1110 control
PfCRT^Ecu1110 [2]; [test solute] = 1 mM
  Uptake of [3H]CQ (% PfCRTEcu1110 control), cis-inhibition: 66 ± 3.8 % PfCRTEcu1110 control
  PfCRT-mediated [3H]CQ transport, cis-inhibition (% PfCRTEcu1110 control): 61 ± 2.9 % PfCRTEcu1110 control
  [3H]CQ transport (% PfCRTEcu1110 control), cis-inhibition, PfCRTEcu1110: 19 ± 0.4 % PfCRTEcu1110 control
PfCRT^Ecu1110 [2]; [test solute] = 2 mM
  Uptake of [3H]CQ (% PfCRTEcu1110 control), cis-inhibition: 52 ± 3.3 % PfCRTEcu1110 control
  PfCRT-mediated [3H]CQ transport, cis-inhibition (% PfCRTEcu1110 control): 48 ± 2.4 % PfCRTEcu1110 control
  [3H]CQ transport (% PfCRTEcu1110 control), cis-inhibition, PfCRTEcu1110: 15 ± 0.1 % PfCRTEcu1110 control
PfCRT^3D7 [3]; [test solute] = 0.5 mM
  Uptake of [3H]CQ (% PfCRT3D7 control), cis-inhibition: 100 ± 2.6 % PfCRT3D7 control
PfCRT^3D7 [3]; [test solute] = 1 mM
  Uptake of [3H]CQ (% PfCRT3D7 control), cis-inhibition: 100 ± 3.7 % PfCRT3D7 control
PfCRT^3D7 [3]; [test solute] = 2 mM
  Uptake of [3H]CQ (% PfCRT3D7 control), cis-inhibition: 100 ± 4.8 % PfCRT3D7 control
non-expressing oocytes [4]; [test solute] = 0.5 mM
  Uptake of [3H]CQ (% non-expressing oocyte control), cis-inhibition: 98 ± 4.6 % non-expressing oocyte control
non-expressing oocytes [4]; [test solute] = 1 mM
  Uptake of [3H]CQ (% non-expressing oocyte control), cis-inhibition: 99 ± 4.7 % non-expressing oocyte control
non-expressing oocytes [4]; [test solute] = 2 mM
  Uptake of [3H]CQ (% non-expressing oocyte control), cis-inhibition: 99 ± 3.7 % non-expressing oocyte control
PfCRT^Dd2 [5]; [test solute]i = 5 mM
  Uptake of [3H]CQ (% PfCRTDd2 control), trans-stimulation: 103 ± 1.1 % PfCRTDd2 control
PfCRT^Dd2 [5]; [9]
  Uptake of [3H]CQ (% PfCRTDd2 control), trans-stimulation: 100 ± 3.8 % PfCRTDd2 control
  [3H]CQ transport (% PfCRTDd2 control), trans-stimulation, PfCRTDd2: 98 ± 3.9 % PfCRTDd2 control
PfCRT^Dd2 [5]; [10]
  PfCRT-mediated [3H]CQ transport, trans-stimulation (% PfCRTDd2 control): 99 ± 4.1 % PfCRTDd2 control
PfCRT^Dd2 [5]; [11]
  PfCRT-mediated [3H]CQ transport, trans-stimulation (% PfCRTDd2 control): 98 ± 3.9 % PfCRTDd2 control
PfCRT^Dd2 [5]; [12]
  [3H]CQ transport (% PfCRTDd2 control), trans-stimulation, PfCRTDd2: 99 ± 4.1 % PfCRTDd2 control
PfNT1; [test solute]i = 5 mM
  Uptake of [3H]CQ (% PfNT1 control), trans-stimulation: 100 ± 3.2 % PfNT1 control
PfNT1; [9]
  Uptake of [3H]CQ (% PfNT1 control), trans-stimulation: 99 ± 3.2 % PfNT1 control
PfCRT^3D7 [6]; [test solute]i = 5 mM
  Uptake of [3H]CQ (% PfCRT3D7 control), trans-stimulation: 121 ± 3.4 % PfCRT3D7 control
PfCRT^3D7 [6]; [9]
  Uptake of [3H]CQ (% PfCRT3D7 control), trans-stimulation: 153 ± 5.0 % PfCRT3D7 control
PfCRT^3D7 [6]; [10]
  PfCRT-mediated [3H]CQ transport, trans-stimulation (% PfCRT3D7 control): 116 ± 2.3 % PfCRT3D7 control
PfCRT^3D7 [6]; [11]
  PfCRT-mediated [3H]CQ transport, trans-stimulation (% PfCRT3D7 control): 147 ± 4.2 % PfCRT3D7 control
PfCRT^Ecu1110 [7]; [test solute]i = 5 mM
  Uptake of [3H]CQ (% PfCRTEcu1110 control), trans-stimulation: 105 ± 3.6 % PfCRTEcu1110 control
PfCRT^Ecu1110 [7]; [9]
  Uptake of [3H]CQ (% PfCRTEcu1110 control), trans-stimulation: 100 ± 2.2 % PfCRTEcu1110 control
  [3H]CQ transport (% PfCRTDd2 control), trans-stimulation, PfCRTEcu1110: 30 ± 1.4 % PfCRTEcu1110 control
PfCRT^Ecu1110 [7]; [10]
  PfCRT-mediated [3H]CQ transport, trans-stimulation (% PfCRTEcu1110 control): 102 ± 2.3 % PfCRTEcu1110 control
PfCRT^Ecu1110 [7]; [11]
  PfCRT-mediated [3H]CQ transport, trans-stimulation (% PfCRTEcu1110 control): 98 ± 3.2 % PfCRTEcu1110 control
PfCRT^Ecu1110 [7]; [12]
  [3H]CQ transport (% PfCRTDd2 control), trans-stimulation, PfCRTEcu1110: 31 ± 1.4 % PfCRTEcu1110 control
non-expressing oocytes [8]; [test solute]i = 5 mM
  Uptake of [3H]CQ (% non-expressing oocyte control), trans-stimulation: 99 ± 4.8 % non-expressing oocyte control
non-expressing oocytes [8]; [9]
  Uptake of [3H]CQ (% non-expressing oocyte control), trans-stimulation: 99 ± 1.0 % non-expressing oocyte control
